Laboratory results as given in patent US6906097B2, “8-azaprostaglandin analogs as agents for lowering intraocular pressure” (Allergan, Inc., priority 2002, dated 2005).

Columns and labels:
hEP1 = target: T1, hEP1 (Homo sapiens, UniProt P34995); experiment: Functional data, human recombinant EP1 receptor stable transfectants; format: cell-based
T1 construct: expressed in transfected cells
T1 sequence (P34995 1-402): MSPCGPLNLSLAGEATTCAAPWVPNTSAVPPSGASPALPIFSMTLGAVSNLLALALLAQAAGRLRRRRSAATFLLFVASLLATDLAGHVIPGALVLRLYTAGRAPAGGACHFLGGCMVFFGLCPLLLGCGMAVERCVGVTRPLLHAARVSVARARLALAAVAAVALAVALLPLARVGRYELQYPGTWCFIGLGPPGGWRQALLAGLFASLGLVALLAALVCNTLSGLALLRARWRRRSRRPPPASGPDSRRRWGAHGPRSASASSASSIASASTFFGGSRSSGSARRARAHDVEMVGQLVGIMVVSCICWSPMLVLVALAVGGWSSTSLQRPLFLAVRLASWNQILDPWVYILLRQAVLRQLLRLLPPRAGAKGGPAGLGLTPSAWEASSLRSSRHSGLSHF
Description: (§1) Human Recombinant EP1, EP2, EP3, EP4, FP, TP, IP and DP Receptors: Stable Transfectants
(§2) Plasmids encoding the human EP1, EP2, EP3, EP4, FP, TP, IP and DP receptors were prepared by cloning the respective coding sequences into the eukaryotic expression vector pCEP4 (Invitrogen). The pCEP4 vector contains an Epstein Barr virus (EBV) origin of replication, which permits episomal replication in primate cell lines expressing EBV nuclear antigen (EBNA-1). It also contains a hygromycin resistance gene that is used for eukaryotic selection. The cells employed for stable transfection were human embryonic kidney cells (HEK-293) that were transfected with and express the EBNA-1 protein. These HEK-293-EBNA cells (Invitrogen) were grown in medium containing Geneticin (G418) to maintain expression of the EBNA-1 protein. HEK-293 cells were grown in DMEM with 10% fetal bovine serum (FBS), 250 μg ml^−1 G418 (Life Technologies) and 200 μg ml^−1 gentamicin or penicillin/streptomycin.
(§3) For transfection, the cells were grown to 50-60% confluency on 10 cm plates. The plasmid pCEP4 incorporating cDNA inserts for the respective human prostanoid receptor (20 μg) was added to 500 μl of 250 mM CaCl2. HEPES buffered saline×2 (2×HBS, 280 mM NaCl, 20 mM HEPES acid, 1.5 mM Na2 HPO4, pH 7.05-7.12) was then added dropwise to a total of 500 μl, with continuous vortexing at room temperature. After 30 min, 9 ml DMEM were added to the mixture. The DNA/DMEM/calcium phosphate mixture was then added to the cells, which had been previously rinsed with 10 ml PBS. The cells were then incubated for 5 hr at 37° C. in humidified 95% air/5% CO2. The calcium phosphate solution was then removed and the cells were treated with 10% glycerol in DMEM for 2 min. The glycerol solution was then replaced by DMEM with 10% FBS. The cells were incubated overnight and the medium was replaced by DMEM/10% FBS containing 250 μg ml^−1 G418 and penicillin/streptomycin. The following day hygromycin B was added to a final concentration of 200 μg ml^−1.
(§4) Ten days after transfection, hygromycin B resistant clones were individually selected and transferred to a separate well on a 24 well plate. At confluence each clone was transferred to one well of a 6 well plate, and then expanded in a 10 cm dish. Cells were maintained under continuous hygromycin selection until use.

hEP3A = target: T2, hEP3A (Homo sapiens, UniProt P43115); experiment: Functional data, human recombinant EP3A receptor stable transfectants; format: cell-based
T2 construct: expressed in transfected cells
T2 sequence (P43115 1-390): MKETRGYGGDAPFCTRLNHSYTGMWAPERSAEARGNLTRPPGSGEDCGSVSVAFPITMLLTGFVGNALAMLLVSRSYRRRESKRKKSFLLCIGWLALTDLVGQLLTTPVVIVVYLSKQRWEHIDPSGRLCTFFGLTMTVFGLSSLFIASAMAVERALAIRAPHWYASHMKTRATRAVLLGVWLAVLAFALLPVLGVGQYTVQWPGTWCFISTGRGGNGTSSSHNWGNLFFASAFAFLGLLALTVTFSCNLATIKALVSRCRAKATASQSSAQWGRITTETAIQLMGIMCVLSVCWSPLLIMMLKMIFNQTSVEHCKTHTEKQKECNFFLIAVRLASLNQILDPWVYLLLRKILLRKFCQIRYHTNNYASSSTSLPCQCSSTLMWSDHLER
Description: as §1
as §2, with “The cells employed for stable transfection were human embryonic kidney cells (HEK-293) that were transfected with and express the EBNA-1 protein. These HEK-293-EBNA cells (Invitrogen) were grown in medium containing Geneticin (G418) to maintain expression of the EBNA-1 protein.” left out
as §3, with “HEPES buffered saline×2 (2×HBS, 280 mM NaCl, 20 mM HEPES acid, 1.5 mM Na2 HPO4, pH 7.05-7.12) was then added dropwise to a total of 500 μl, with continuous vortexing at room temperature.” left out
as §4

hEP4 [1] = target: T3, hEP4 (Homo sapiens, UniProt P35408); experiment: Functional data, human recombinant EP4 receptor stable transfectants; format: cell-based
T3 construct: expressed in transfected cells
Description: as §1
as §2, with “The cells employed for stable transfection were human embryonic kidney cells (HEK-293) that were transfected with and express the EBNA-1 protein. These HEK-293-EBNA cells (Invitrogen) were grown in medium containing Geneticin (G418) to maintain expression of the EBNA-1 protein.” left out
as §3, with “HEPES buffered saline×2 (2×HBS, 280 mM NaCl, 20 mM HEPES acid, 1.5 mM Na2 HPO4, pH 7.05-7.12) was then added dropwise to a total of 500 μl, with continuous vortexing at room temperature.” left out
as §4

hTP = target: T4, hTP (Homo sapiens, UniProt P21731); experiment: Functional data, human recombinant TP receptor stable transfectants; format: cell-based
T4 construct: expressed in transfected cells
T4 sequence (P21731 1-343): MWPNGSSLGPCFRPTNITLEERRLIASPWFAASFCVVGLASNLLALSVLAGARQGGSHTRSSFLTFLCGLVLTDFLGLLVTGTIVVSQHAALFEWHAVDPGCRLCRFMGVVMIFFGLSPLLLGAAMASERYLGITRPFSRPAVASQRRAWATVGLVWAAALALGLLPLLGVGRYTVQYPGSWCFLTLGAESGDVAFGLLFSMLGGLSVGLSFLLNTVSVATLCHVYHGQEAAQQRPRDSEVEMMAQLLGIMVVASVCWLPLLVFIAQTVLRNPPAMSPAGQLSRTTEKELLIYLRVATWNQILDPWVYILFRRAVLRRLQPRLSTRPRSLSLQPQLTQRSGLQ
Description: as §1, §2, §3, §4

hEP2 = target: T5, hEP2 (Homo sapiens, UniProt P43116); experiment: Radioligand binding, hEP2; details: [3H]PGE2 competition
T5 construct: expressed in transfected cells
Description: as §1
as §2, with “HEK-293 cells were grown in DMEM with 10% fetal bovine serum (FBS), 250 μg ml^−1 G418 (Life Technologies) and 200 μg ml^−1 gentamicin or penicillin/streptomycin.” left out
Radioligand binding studies on plasma membrane fractions prepared for cells stably transfected with the cat or human receptor were performed as follows. […] The pellet was then resuspended in TME buffer to provide a final protein concentration of 1 mg/ml, as determined by Bio-Rad assay. […]
The binding of [^3H](N) PGE2 (specific activity 165 Ci/mmol) was determined in duplicate and in at least 3 separate experiments. […] Competition studies were performed using a final concentration of 2.5 or 5 nM [^3H](N) PGE2 and non-specific binding was determined with 10^−5 M unlabelled PGE2.

hEP4 [2] = target: T3, hEP4; experiment: Radioligand binding, hEP4; details: [3H]PGE2 competition
Description: as §1
as §2, with “The cells employed for stable transfection were human embryonic kidney cells (HEK-293) that were transfected with and express the EBNA-1 protein. These HEK-293-EBNA cells (Invitrogen) were grown in medium containing Geneticin (G418) to maintain expression of the EBNA-1 protein.” left out
as §3, with “HEPES buffered saline×2 (2×HBS, 280 mM NaCl, 20 mM HEPES acid, 1.5 mM Na2 HPO4, pH 7.05-7.12) was then added dropwise to a total of 500 μl, with continuous vortexing at room temperature.” left out
as §4
Radioligand binding studies on plasma membrane fractions prepared for cells stably transfected with the cat or human receptor were performed as follows. Cells washed with TME buffer were scraped from the bottom of the flasks and homogenized for 30 sec using a Brinkman PT 10/35 polytron. TME buffer was added as necessary to achieve a 40 ml volume in the centrifuge tubes. TME is comprised of 50 mM TRIS base, 10 mM MgCl2, 1 mM EDTA; pH 7.4 is achieved by adding 1 N HCl. The cell homogenate was centrifuged at 19,000 rpm for 20-25 min at 4° C. using a Beckman Ti-60 or Ti-70 rotor. The pellet was then resuspended in TME buffer to provide a final protein concentration of 1 mg/ml, as determined by Bio-Rad assay. Radioligand binding assays were performed in a 100 μl or 200 μl volume.
The binding of [^3H](N) PGE2 (specific activity 165 Ci/mmol) was determined in duplicate and in at least 3 separate experiments. Incubations were for 60 min at 25° C. and were terminated by the addition of 4 ml of ice-cold 50 mM TRIS-HCl followed by rapid filtration through Whatman GF/B filters and three additional 4 ml washes in a cell harvester (Brandel). Competition studies were performed using a final concentration of 2.5 or 5 nM [^3H](N) PGE2 and non-specific binding was determined with 10^−5 M unlabelled PGE2.

hIP = target: T6, hIP (Homo sapiens, UniProt P43119); experiment: Functional data, human recombinant IP receptor stable transfectants; format: cell-based
T6 construct: expressed in transfected cells
Description: as §1, §2
For transfection, the cells were grown to 50-60% confluency on 10 cm plates. The plasmid pCEP4 incorporating cDNA inserts for the respective human prostanoid receptor (20 μg) was added to 500 μl of 250 mM CaCl2. HEPES buffered saline×2 (2×HBS, 280 mM NaCl, 20 mM HEPES acid, 1.5 mM Na2 HPO4, pH 7.05-7.12) was then added dropwise to a total of 500 μl, with continuous vortexing at room temperature. […]

hEP3D = target: T7, hEP3D (Homo sapiens, UniProt P43115); experiment: Radioligand binding, hEP3D; details: [3H]PGE2 competition
T7 construct: expressed in transfected cells; host or cells: COS-7, transient transfection, plasma membrane fraction
T7 sequence (P43115 1-374 isoform P43115-4): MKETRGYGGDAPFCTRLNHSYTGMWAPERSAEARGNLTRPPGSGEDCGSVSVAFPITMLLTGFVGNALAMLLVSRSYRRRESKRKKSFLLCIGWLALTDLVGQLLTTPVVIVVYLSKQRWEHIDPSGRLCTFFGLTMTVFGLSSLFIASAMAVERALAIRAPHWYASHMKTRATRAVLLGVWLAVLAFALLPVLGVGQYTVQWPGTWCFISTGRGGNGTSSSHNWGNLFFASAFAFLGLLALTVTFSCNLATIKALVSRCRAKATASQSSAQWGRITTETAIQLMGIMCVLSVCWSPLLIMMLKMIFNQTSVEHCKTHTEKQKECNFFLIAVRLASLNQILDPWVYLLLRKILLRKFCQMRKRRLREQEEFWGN
Description: For radioligand binding on the transient transfectants, plasma membrane fraction preparation was as follows. COS-7 cells were washed with TME buffer, scraped from the bottom of the flasks, and homogenized for 30 sec using a Brinkman PT 10/35 polytron. TME buffer was added to achieve a final 40 ml volume in the centrifuge tubes. The composition of TME is […]; 10N HCl is added to achieve a pH of 7.4.
The cell homogenate was centrifuged at 19000 rpm for 20 min at 4° C. using a Beckman Ti-60 rotor. The resultant pellet was resuspended in TME buffer to give a final 1 mg/ml protein concentration, as determined by Biorad assay. Radioligand binding assays were performed in a 200 μl volume.
The binding of [^3H] PGE2 (specific activity 165 […]) at EP3D, receptors and [^3H]-SQ29548 (specific activity 41.5 Ci mmol^−1) at TP receptors were determined in duplicate in at least three separate experiments. Radiolabeled PGE2 was purchased from Amersham, radiolabeled SQ29548 was purchased from New England Nuclear. […] Competition studies were performed using a final concentration of 2.5 or 5 nM [^3H]-PGE2, or 10 nM [^3H]-SQ 29548 and non-specific binding determined with 10 μM of the respective unlabeled prostanoid. […]

T3 sequence (P35408 whole entry): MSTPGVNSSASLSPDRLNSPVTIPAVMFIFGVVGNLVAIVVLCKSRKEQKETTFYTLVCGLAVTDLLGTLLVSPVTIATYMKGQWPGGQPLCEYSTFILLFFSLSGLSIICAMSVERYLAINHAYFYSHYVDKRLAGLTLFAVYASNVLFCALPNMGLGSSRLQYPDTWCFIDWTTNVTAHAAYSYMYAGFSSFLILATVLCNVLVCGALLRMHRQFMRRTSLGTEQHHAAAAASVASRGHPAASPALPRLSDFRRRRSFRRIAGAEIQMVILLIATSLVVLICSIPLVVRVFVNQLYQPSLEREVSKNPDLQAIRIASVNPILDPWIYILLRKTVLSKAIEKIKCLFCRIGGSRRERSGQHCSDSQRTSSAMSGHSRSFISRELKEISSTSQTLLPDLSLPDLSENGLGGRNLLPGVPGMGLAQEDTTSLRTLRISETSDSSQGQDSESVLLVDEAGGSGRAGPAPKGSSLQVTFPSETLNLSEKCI
T5 sequence (P43116 whole entry): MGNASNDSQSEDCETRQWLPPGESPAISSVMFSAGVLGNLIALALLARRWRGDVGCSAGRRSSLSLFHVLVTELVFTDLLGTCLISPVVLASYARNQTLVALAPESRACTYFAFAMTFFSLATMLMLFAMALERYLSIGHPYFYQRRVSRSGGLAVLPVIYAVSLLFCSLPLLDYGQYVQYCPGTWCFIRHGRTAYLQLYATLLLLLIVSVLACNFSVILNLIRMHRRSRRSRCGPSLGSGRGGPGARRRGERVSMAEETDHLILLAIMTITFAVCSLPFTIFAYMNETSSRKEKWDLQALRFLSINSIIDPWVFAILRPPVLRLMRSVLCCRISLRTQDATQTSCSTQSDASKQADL
T6 sequence (P43119 whole entry): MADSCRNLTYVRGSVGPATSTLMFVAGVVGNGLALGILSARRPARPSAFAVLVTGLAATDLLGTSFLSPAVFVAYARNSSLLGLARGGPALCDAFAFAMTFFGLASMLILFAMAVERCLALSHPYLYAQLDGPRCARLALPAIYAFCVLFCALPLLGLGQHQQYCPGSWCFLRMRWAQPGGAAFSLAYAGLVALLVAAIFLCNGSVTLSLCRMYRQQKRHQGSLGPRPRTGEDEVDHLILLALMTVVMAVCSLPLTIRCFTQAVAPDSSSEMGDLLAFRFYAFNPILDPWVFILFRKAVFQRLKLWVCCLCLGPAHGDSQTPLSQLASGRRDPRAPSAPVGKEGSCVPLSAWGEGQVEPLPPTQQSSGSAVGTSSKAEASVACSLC

hEP1 functional EC50 (hEP1) | EC50 (hEP3A) [nM] | EC50 (hEP4 [1]) [nM] | EC50 (hTP) [nM] | IC50 (hEP2) [nM] | IC50 (hEP4 [2]) [nM] | EC50 (hIP) [nM] | EC50 (hEP1) [nM] | hEP3A functional EC50 (hEP3A) | IC50 (hEP3D) [nM] | SMILES
hit | 324 | 0.02 | > 10000 | > 10000 | 0.4 | – | – | – | – | O=C(O)CCCCCCN1C(=O)CC[C@@H]1/C=C/C(O)Cc1cccc(Cl)c1 (stereo partly drawn) [Example 1a, 7-[2S-[3R-Hydroxy-4-(chloro-phenyl)-but-1-enyl]-5-oxo-pyrrolidin-1-yl]-heptanoic acid]
– | > 10000 | 26 | – | – | 200 | > 10000 | – | – | – | CCOC(=O)CCCCCCN1C(=O)CC[C@@H]1/C=C/C(O)Cc1cccc(C(F)(F)F)c1 (stereo partly drawn) [Example 6a, 7-[2S-[3R-Hydroxy-4-(3-trifluoromethyl-phenyl)-but-1-enyl]-5-oxo-pyrrolidin-1-yl]-heptanoic acid, ethyl ester]
– | – | 86 | – | > 10000 | 500 | – | > 10000 | hit | – | O=C(O)CCCCCCN1C(=O)CC[C@@H]1/C=C/C(=O)Cc1cccc(C(F)(F)F)c1 [Example 7a, 7-[2S-[3-Oxo-4-(trifluormethylphenyl)-but-1-enyl]-5-oxo-pyrrolidin-1-yl]-heptanoic acid]
– | – | 29 | > 10000 | – | – | – | – | hit | 300 | O=C(O)CCCCCCN1C(=O)CC[C@@H]1/C=C/C(=O)Cc1ccccc1 [Example 11a, 7-[2S-[3-Oxo-4-(phenyl)-but-1-enyl]-5-oxo-pyrrolidin-1-yl]-heptanoic acid]
